Measurements from ChEMBL document CHEMBL3046436, “Effects of 1,3-dichloropropene as a methyl bromide alternative for management of nematode, soil-borne disease, and weed in ginger (Zingiber officinale) crops in China” (2012).
The source made the active and inactive calls. The rule behind the calls is not given here.

What was measured:
Zingiber officinale [1] = test: Increase in marketable fruit yield in Zingiber officinale (ginger) plants at 400 kg/ha applied through fumigation protocol (reference value: 48.2 ton/ha); assay type: functional
Meloidogyne incognita [2] = test: Nematicidal activity against Meloidogyne incognita (root-knot nematode) in ginger crop fields assessed as root galling index at 400 kg/ha measured after 60 days post compound application (reference value: 5.49 root galling index); assay type: functional
Meloidogyne incognita [3] = test: Nematicidal activity against Meloidogyne incognita (root-knot nematode) in ginger crop fields assessed as number of nematodes per 100 cm3 soil at 400 kg/ha measured after 60 days post compound application (reference value: 88.2 nematodes in 100 cm3 soil); assay type: functional
Digitaria sanguinalis [4] = test: Herbicidal activity against Digitaria sanguinalis (hairy crabgrass) assessed as reduction in weed populations at 400 kg/ha; assay type: functional, organism-based
Stellaria media [5] = test: Herbicidal activity against Stellaria media assessed as reduction in weed populations at 400 kg/ha; assay type: functional, organism-based
Ralstonia solanacearum [6] = test: Antimicrobial activity against Ralstonia solanacearum in ginger plants fields assessed as reduction in ginger blast-induced plant mortality at 400 kg/ha applied through fumigation protocol; assay type: functional, organism-based
Meloidogyne incognita [7] = test: Nematicidal activity against Meloidogyne incognita (root-knot nematode) in ginger crop fields assessed as number of nematodes per 100 cm3 soil at 400 kg/ha measured after 40 days post compound application (reference value: 75.3 nematodes in 100 cm3 soil); assay type: functional
Meloidogyne incognita [8] = test: Nematicidal activity against Meloidogyne incognita (root-knot nematode) in ginger crop fields assessed as number of nematodes per 100 cm3 soil at 400 kg/ha measured after 20 days post compound application (reference value: 56.7 nematodes in 100 cm3 soil); assay type: functional
Zingiber officinale [9] = test: Increase in medium fruit yield in Zingiber officinale (ginger) plants at 400 kg/ha applied through fumigation protocol (reference value: 24.6 ton/ha); assay type: functional
Zingiber officinale [10] = test: Increase in large fruit yield in Zingiber officinale (ginger) plants at 400 kg/ha applied through fumigation protocol (reference value: 20.1 ton/ha); assay type: functional
Zingiber officinale [11] = test: Increase in extra-large fruit yield in Zingiber officinale (ginger) plants at 400 kg/ha applied through fumigation protocol (reference value: 3.5 ton/ha); assay type: functional
Capsella bursa-pastoris [12] = test: Herbicidal activity against Capsella bursa-pastoris assessed as reduction in weed populations at 400 kg/ha; assay type: functional, organism-based
Zingiber officinale [13] = test: Increase in plant height of Zingiber officinale (ginger) plants at 400 kg/ha applied through fumigation protocol (reference value: 79.6 cm); assay type: functional
Zingiber officinale [14] = test: Increase in stem diameter of Zingiber officinale (ginger) plants at 400 kg/ha applied through fumigation protocol (reference value: 11.3 mm); assay type: functional
Zingiber officinale [15] = test: Increase in marketable fruit yield in Zingiber officinale (ginger) plants at 90 L/ha applied through fumigation protocol (reference value: 48.2 ton/ha); assay type: functional
Zingiber officinale [16] = test: Increase in marketable fruit yield in Zingiber officinale (ginger) plants at 120 L/ha applied through fumigation protocol (reference value: 48.2 ton/ha); assay type: functional
Zingiber officinale [17] = test: Increase in marketable fruit yield in Zingiber officinale (ginger) plants at 180 L/ha applied through fumigation protocol (reference value: 48.2 ton/ha); assay type: functional
Zingiber officinale [18] = test: Increase in medium fruit yield in Zingiber officinale (ginger) plants at 90 L/ha applied through fumigation protocol (reference value: 24.6 ton/ha); assay type: functional
Meloidogyne incognita [19] = test: Nematicidal activity against Meloidogyne incognita (root-knot nematode) in ginger crop fields assessed as root galling index at 90 L/ha measured after 60 days post compound application (reference value: 5.49 root galling index); assay type: functional
Meloidogyne incognita [20] = test: Nematicidal activity against Meloidogyne incognita (root-knot nematode) in ginger crop fields assessed as root galling index at 120 L/ha measured after 60 days post compound application (reference value: 5.49 root galling index); assay type: functional
Meloidogyne incognita [21] = test: Nematicidal activity against Meloidogyne incognita (root-knot nematode) in ginger crop fields assessed as root galling index at 180 L/ha measured after 60 days post compound application (reference value: 5.49 root galling index); assay type: functional
Meloidogyne incognita [22] = test: Nematicidal activity against Meloidogyne incognita (root-knot nematode) in ginger crop fields assessed as number of nematodes per 100 cm3 soil at 90 L/ha measured after 60 days post compound application (reference value: 88.2 nematodes in 100 cm3 soil); assay type: functional
Meloidogyne incognita [23] = test: Nematicidal activity against Meloidogyne incognita (root-knot nematode) in ginger crop fields assessed as number of nematodes per 100 cm3 soil at 120 L/ha measured after 60 days post compound application (reference value: 88.2 nematodes in 100 cm3 soil); assay type: functional
Meloidogyne incognita [24] = test: Nematicidal activity against Meloidogyne incognita (root-knot nematode) in ginger crop fields assessed as number of nematodes per 100 cm3 soil at 180 L/ha measured after 60 days post compound application (reference value: 88.2 nematodes in 100 cm3 soil); assay type: functional
Meloidogyne incognita [25] = test: Nematicidal activity against Meloidogyne incognita (root-knot nematode) in ginger crop fields assessed as number of nematodes per 100 cm3 soil at 90 L/ha measured after 40 days post compound application (reference value: 75.3 nematodes in 100 cm3 soil); assay type: functional
Meloidogyne incognita [26] = test: Nematicidal activity against Meloidogyne incognita (root-knot nematode) in ginger crop fields assessed as number of nematodes per 100 cm3 soil at 120 L/ha measured after 40 days post compound application (reference value: 75.3 nematodes in 100 cm3 soil); assay type: functional
Zingiber officinale [27] = test: Increase in stem diameter of Zingiber officinale (ginger) plants at 120 L/ha applied through fumigation protocol (reference value: 11.3 mm); assay type: functional
Zingiber officinale [28] = test: Increase in stem diameter of Zingiber officinale (ginger) plants at 180 L/ha applied through fumigation protocol (reference value: 11.3 mm); assay type: functional
Ralstonia solanacearum [29] = test: Antimicrobial activity against Ralstonia solanacearum in ginger plants fields assessed as reduction in ginger blast-induced plant mortality at 120 to 180 L/ha applied through fumigation protocol; assay type: functional, organism-based
Meloidogyne incognita [30] = test: Nematicidal activity against Meloidogyne incognita (root-knot nematode) in ginger crop fields assessed as number of nematodes per 100 cm3 soil at 180 L/ha measured after 40 days post compound application (reference value: 75.3 nematodes in 100 cm3 soil); assay type: functional
Meloidogyne incognita [31] = test: Nematicidal activity against Meloidogyne incognita (root-knot nematode) in ginger crop fields assessed as number of nematodes per 100 cm3 soil at 90 L/ha measured after 20 days post compound application (reference value: 56.7 nematodes in 100 cm3 soil); assay type: functional
Meloidogyne incognita [32] = test: Nematicidal activity against Meloidogyne incognita (root-knot nematode) in ginger crop fields assessed as number of nematodes per 100 cm3 soil at 120 L/ha measured after 20 days post compound application (reference value: 56.7 nematodes in 100 cm3 soil); assay type: functional
Meloidogyne incognita [33] = test: Nematicidal activity against Meloidogyne incognita (root-knot nematode) in ginger crop fields assessed as number of nematodes per 100 cm3 soil at 180 L/ha measured after 20 days post compound application (reference value: 56.7 nematodes in 100 cm3 soil); assay type: functional
Zingiber officinale [34] = test: Increase in shoots number of Zingiber officinale (ginger) plants at 90 to 180 L/ha applied through fumigation protocol; assay type: functional, organism-based
Zingiber officinale [35] = test: Increase in leaves number of Zingiber officinale (ginger) plants at 90 to 180 L/ha applied through fumigation protocol; assay type: functional, organism-based
Zingiber officinale [36] = test: Increase in stem diameter of Zingiber officinale (ginger) plants at 90 L/ha applied through fumigation protocol (reference value: 11.3 mm); assay type: functional
Zingiber officinale [37] = test: Increase in medium fruit yield in Zingiber officinale (ginger) plants at 120 L/ha applied through fumigation protocol (reference value: 24.6 ton/ha); assay type: functional
Zingiber officinale [38] = test: Increase in medium fruit yield in Zingiber officinale (ginger) plants at 180 L/ha applied through fumigation protocol (reference value: 24.6 ton/ha); assay type: functional
Zingiber officinale [39] = test: Increase in large fruit yield in Zingiber officinale (ginger) plants at 90 L/ha applied through fumigation protocol (reference value: 20.1 ton/ha); assay type: functional
Zingiber officinale [40] = test: Increase in large fruit yield in Zingiber officinale (ginger) plants at 120 L/ha applied through fumigation protocol (reference value: 20.1 ton/ha); assay type: functional
Zingiber officinale [41] = test: Increase in large fruit yield in Zingiber officinale (ginger) plants at 180 L/ha applied through fumigation protocol (reference value: 20.1 ton/ha); assay type: functional
Zingiber officinale [42] = test: Increase in extra-large fruit yield in Zingiber officinale (ginger) plants at 90 L/ha applied through fumigation protocol (reference value: 3.5 ton/ha); assay type: functional
Zingiber officinale [43] = test: Increase in extra-large fruit yield in Zingiber officinale (ginger) plants at 180 L/ha applied through fumigation protocol (reference value: 3.5 ton/ha); assay type: functional
Capsella bursa-pastoris [44] = test: Herbicidal activity against Capsella bursa-pastoris assessed as reduction in weed populations at 90 to 180 L/ha; assay type: functional, organism-based
Digitaria sanguinalis [45] = test: Herbicidal activity against Digitaria sanguinalis (hairy crabgrass) assessed as reduction in weed populations at 90 to 180 L/ha; assay type: functional, organism-based
Stellaria media [46] = test: Herbicidal activity against Stellaria media assessed as reduction in weed populations at 90 to 180 L/ha; assay type: functional, organism-based
Zingiber officinale [47] = test: Increase in plant height of Zingiber officinale (ginger) plants at 90 L/ha applied through fumigation protocol (reference value: 79.6 cm); assay type: functional
Zingiber officinale [48] = test: Increase in plant height of Zingiber officinale (ginger) plants at 180 L/ha applied through fumigation protocol (reference value: 79.6 cm); assay type: functional
Zingiber officinale [49] = test: Increase in plant height of Zingiber officinale (ginger) plants at 120 L/ha applied through fumigation protocol (reference value: 79.6 cm); assay type: functional

For `CBr` [BROMOMETHANE], the Crop_yield (Zingiber officinale [1]) was 76.4 tons/ha, the Root_galling_index (Meloidogyne incognita [2]) was 2.68 and the Activity (Meloidogyne incognita [3]) was 47.4 /10'2cm3. For the same molecule, the Activity (Digitaria sanguinalis [4]) was “Active”, the Activity (Stellaria media [5]) was “Active” and the Activity (Ralstonia solanacearum [6]) was “Active”. The Activity (Meloidogyne incognita [7]) was 31.6 /10'2cm3, the Activity (Meloidogyne incognita [8]) was 22.3 /10'2cm3 and the Crop_yield (Zingiber officinale [9]) was 39.1 tons/ha. The Crop_yield (Zingiber officinale [10]) was 28.7 tons/ha, the Crop_yield (Zingiber officinale [11]) was 8.6 tons/ha and the Activity (Capsella bursa-pastoris [12]) was “Active”. The Activity (Zingiber officinale [13]) was 91.3 cm and the Activity (Zingiber officinale [14]) was 13.5 mm.

In the case of `Cl/C=C/CCl` [1,3-DICHLOROPROPENE], the Crop_yield (Zingiber officinale [15]) is reported as 64.7 tons/ha, the Crop_yield (Zingiber officinale [16]) is reported as 71.1 tons/ha and the Crop_yield (Zingiber officinale [17]) is reported as 75.8 tons/ha. For the same molecule, the Crop_yield (Zingiber officinale [18]) was 32.4 tons/ha, the Root_galling_index (Meloidogyne incognita [19]) was 3.66 and the Root_galling_index (Meloidogyne incognita [20]) was 3.34. The Root_galling_index (Meloidogyne incognita [21]) was 2.31, the Activity (Meloidogyne incognita [22]) was 58.5 /10'2cm3 and the Activity (Meloidogyne incognita [23]) was 45.5 /10'2cm3. For the same molecule, the Activity (Meloidogyne incognita [24]) was 36.9 /10'2cm3, the Activity (Meloidogyne incognita [25]) was 45.1 /10'2cm3 and the Activity (Meloidogyne incognita [26]) was 38.4 /10'2cm3. For the same molecule, the Activity (Zingiber officinale [27]) was 12.8 mm, the Activity (Zingiber officinale [28]) was 13.9 mm and the Activity (Ralstonia solanacearum [29]) was “Active”. The Activity (Meloidogyne incognita [30]) was 27.3 /10'2cm3, the Activity (Meloidogyne incognita [31]) was 33.6 /10'2cm3 and the Activity (Meloidogyne incognita [32]) was 24.2 /10'2cm3. The Activity (Meloidogyne incognita [33]) was 17.3 /10'2cm3, the Activity (Zingiber officinale [34]) was “Active” and the Activity (Zingiber officinale [35]) was “Active”. It also gave an Activity (Zingiber officinale [36]) of 12.1 mm, a Crop_yield (Zingiber officinale [37]) of 36.3 tons/ha and a Crop_yield (Zingiber officinale [38]) of 38.2 tons/ha. For the same molecule, the Crop_yield (Zingiber officinale [39]) was 24.9 tons/ha, the Crop_yield (Zingiber officinale [40]) was 26.9 tons/ha and the Crop_yield (Zingiber officinale [41]) was 29.5 tons/ha. For the same molecule, the Crop_yield (Zingiber officinale [42]) was 7.4 tons/ha, the Crop_yield (Zingiber officinale [43]) was 8.1 tons/ha and the Activity (Capsella bursa-pastoris [44]) was “inactive”. For the same molecule, the Activity (Digitaria sanguinalis [45]) was “inactive”, the Activity (Stellaria media [46]) was “inactive” and the Activity (Zingiber officinale [47]) was 82.6 cm. It also gave an Activity (Zingiber officinale [48]) of 88.9 cm and an Activity (Zingiber officinale [49]) of 85.4 cm.
